US12714107B2, “Dioxazolines and their use as herbicides” (BASF SE, priority 2020, dated 2026)

Columns and labels:
AVEFA = assay: greenhouse herbicidal activity, post-emergence method; assay type: in vivo, Avena fatua; details: scale 0 to 100
Source text: (§1) The culture containers used were plastic flowerpots containing loamy sand with approximately 3.0% of humus as the substrate. The seeds of the test plants were sown separately for each species.
(§2) For the pre-emergence treatment, the active ingredients, which had been suspended or emulsified in water, were applied directly after sowing by means of finely distributing nozzles. The containers were irrigated gently to promote germination and growth and subsequently covered with transparent plastic hoods until the test plants had rooted. This cover caused uniform germination of the test plants, unless this had been impaired by the active ingredients. For the post-emergence treatment, the test plants were first grown to a height of 3 to 15 cm, depending on the plant habit, and only then treated with the active ingredients which had been suspended or emulsified in water. For this purpose, the test plants were either sown directly and grown in the same containers, or they were first grown separately as seedlings and transplanted into the test containers a few days prior to treatment.
(§3) Depending on the species, the test plants were kept at 10-25° C. or 20-35° C., respectively. The test period extended over 2 to 4 weeks. During this time, the test plants were tended, and their response to the individual treatments was evaluated.
(§4) Evaluation was carried out using a scale from 0 to 100. […]

APESV = assay: greenhouse herbicidal activity, pre-emergence method; assay type: in vivo, Apera spica-venti; details: application rate 0,500 kg/ha, scale 0 to 100
Source text: as §1, §2, §3, §4

ALOMY = assay: greenhouse herbicidal activity, post-emergence method; assay type: in vivo, Alopercurus myosuroides; details: application rate 0,500 kg/ha, scale 0 to 100
Source text: as §1, §2, §3, §4

AMARE [1] = assay: greenhouse herbicidal activity, pre-emergence method; assay type: in vivo, Amaranthus retroflexus; details: scale 0 to 100
Source text: as §1, §2, §3
Evaluation was carried out using a scale from 0 to 100. 100 means no emergence of the test plants, or complete destruction of at least the aerial moieties, and 0 means no damage, or normal course of growth. A good herbicidal activity is given at values of 80 to 90 and a very good herbicidal activity is given at values of 90 to 100.
The test plants used in the greenhouse experiments were of the following species: […]

SETVI = assay: greenhouse herbicidal activity, post-emergence method; assay type: in vivo, Setaria viridis; details: application rate 0,500 kg/ha, scale 0 to 100
Source text: as §1, §2, §3, §4

ECHCG [2] = assay: greenhouse herbicidal activity, pre-emergence method; assay type: in vivo, Echinocloa crus-galli; details: scale 0 to 100
Source text: as §1, §2, §3, §4

ECHCG [3] = assay: greenhouse herbicidal activity, post-emergence method; assay type: in vivo, Echinocloa crus-galli; details: scale 0 to 100
Source text: as §1, §2, §3, §4

AMARE [4] = assay: as above; assay type: in vivo, Amaranthus retroflexus; details: application rate 1,000 kg/ha, scale 0 to 100
Source text: as §1, §2, §3, §4

SETFA = assay: greenhouse herbicidal activity, pre-emergence method; assay type: in vivo, Setaria faberi; details: application rate 1,000 kg/ha, scale 0 to 100
Source text: as §1, §2, §3, §4

## COC(=O)C1C=CC(NC(=O)C2(C(F)(F)F)ON=C(c3cc(Cl)cc(Cl)c3)O2)C1 (centres unmarked) [compound 19]
AVEFA; application rate 0,250 kg/ha
  herbicidal activity against AVEFA: very good (a very good herbicidal activity is given at values of 90 to 100)

## COC(=O)CCCNC(=O)C1(C)ON=C(c2cc(Cl)cc(Cl)c2)O1 (centres unmarked) [compound 12]
AVEFA; application rate 0,500 kg/ha
  herbicidal activity against AVEFA: good (A good herbicidal activity is given at values of 80 to 90)
APESV
  herbicidal activity against APESV: good (A good herbicidal activity is given at values of 80 to 90)

## COC(=O)C[C@H](C)NC(=O)C1(C(F)(F)F)ON=C(c2cc(Cl)cc(Cl)c2)O1 (stereo partly drawn) [compound 13, methyl (3S)-3-[[3-(3,5-dichlorophenyl)-5-(trifluoromethyl)-1,4,2-dioxazole-5-carbonyl]amino]butanoate]
ALOMY
  herbicidal activity against ALOMY: good (A good herbicidal activity is given at values of 80 to 90)
AMARE [1]; application rate 0,500 kg/ha
  herbicidal activity against AMARE: very good (a very good herbicidal activity is given at values of 90 to 100)

## COC(=O)C1CC(NC(=O)C2(C)ON=C(c3cc(F)cc(F)c3)O2)C1 (centres unmarked) [compound 16]
SETVI
  herbicidal activity against SETVI: very good (a very good herbicidal activity is given at values of 90 to 100)

## C=CC1(C(=O)NC2C=CC(C(=O)OC)C2)ON=C(c2cc(Cl)cc(Cl)c2)O1 (centres unmarked) [compound 111]
ECHCG [2]; application rate 0,250 kg/ha
  herbicidal activity against ECHCG: very good (a very good herbicidal activity is given at values of 90 to 100)
ECHCG [3]; application rate 0,250 kg/ha
  herbicidal activity against ECHCG: very good (a very good herbicidal activity is given at values of 90 to 100)

## C=CC1(C(=O)NC(C)CC(=O)OC)ON=C(c2cc(Cl)cc(Cl)c2)O1 (centres unmarked) [compound 110]
AMARE [4]
  herbicidal activity against AMARE: good (A good herbicidal activity is given at values of 80 to 90)
AMARE [1]; application rate 1,000 kg/ha
  herbicidal activity against AMARE: good (A good herbicidal activity is given at values of 80 to 90)

## COC(=O)CC(C)NC(=O)C1(C)ON=C(c2cc(Cl)cc(Cl)c2)O1 (centres unmarked) [compound 11]
ECHCG [3]; application rate 0,500 kg/ha
  herbicidal activity against ECHCG: very good (a very good herbicidal activity is given at values of 90 to 100)

## CC(CC(=O)O)NC(=O)C1(C)ON=C(c2cc(Cl)cc(Cl)c2)O1 (centres unmarked) [compound 17]
ECHCG [2]; application rate 1,000 kg/ha
  herbicidal activity against ECHCG: good (A good herbicidal activity is given at values of 80 to 90)
SETFA
  herbicidal activity against SETFA: very good (a very good herbicidal activity is given at values of 90 to 100)

## COC(=O)C1C=CC(NC(=O)C2(C)ON=C(c3cc(F)cc(F)c3)O2)C1 (centres unmarked) [compound 18]
AMARE [1]; application rate 1,000 kg/ha
  herbicidal activity against AMARE: very good (a very good herbicidal activity is given at values of 90 to 100)
